Measurements from patent US20080015147A1, “Method for inhibiting neuronal cell death” (priority 2006, published 2008).

Columns and labels:
[1] = test system: N38 cells immortalized mouse hypothalamic cell line; assay: Cell morphology analysis (small round necrotic cells); type: cell-based; details: for number of small round (necrotic) cells, vehicle vs TCAP-treated: 48 hrs; for number of rounded cells relative to vehicle: 72 hrs
Experimental: The effect of TCAP-1 on cell morphology was conducted using the N38 cells immortalized mouse hypothalamic cell line(Belsham et al, 2004). Cells were grown in six-well culture plate with 2 ml of Dulbeco's Modified Eagle Medium (DMEM) with high glucose, […], 25 mM HEPES buffer, pyridoxine hydrochloride in the absence of sodium pyruvate, 5 ml penicillin with 10% fetal bovine serum (FBS) at pH 7.4 (all from Gibco-Invitrogen, Burlington, Canada).
At 24 and 48 hrs, the medium was replaced with medium buffered at pH 6.8, 7.4, 8.0 or 8.4. Half of the cell groups received (2×10^−7 M) TCAP-1, whereas the other half received phosphate buffered saline (PBS) pH 7.4 containing 8 g NaCl, 0.2 g KCl, 1.4 g Na2HPO4, 0.2 g KH2PO4 in. 800 mL ddH2O. For all groups, 4 replicates were run. Digital pictures were taken at 24, 48 and 72 hrs using an Olympus IX&1 inverted microscope at a magnification of 200× and analyzed using LabWorks 4.0 Image Acquisition and Analysis software (UltraViolet Products Ltd).

N38 cells = assay: Fluorescent microscopy of necrosis and apoptosis markers; type: cell-based, mouse; details: 48 hrs
Experimental: N38 cells were cultured on poly-D-Lysine treated coverslips (VWR, Mississauga) in each of the four pH condition, and cells were washed twice with PBS, each fluorochrome was added to each well: 5 μl Fluorescein (FITC)-Annexin V in Tris EDTA buffer containing 0.1% BSA (Bovine serum albumin) and 0.1% NaN3, pH 7.5, 5 μl rhodamine EtD-III 200 μM in PBS and 5 μl 4′,6-Diamidino-2-phenylindole (DAPI) Hoechst 33342 5 μg/mL in PBS (Biotium, Inc. Hayward). The samples were incubated in the dark for 15 min, then washed before being placed on slides. The cells were viewed under a Leica DM4500 inverted fluorescent microscope and digitally analyzed using OpenLab software.
Annexin V labelled with fluorescein (FITC) was used to identify apoptotic cells in green. Ethidium homodimer III (EtD-III) is a positively charged nucleic acid probe, which is impermeable to live or apoptotic cells but stains necrotic cells with red fluorescence (rhodamine) and Hoechst 3342 (4′,6-Diamidino-2-phenylindole) (DAPI) emits bright blue fluorescence upon binding to DNA in living cells.

caspase 3 = assay: Caspase 3 colorimetric assay; type: cell-based, mouse
Experimental: Caspase 8 and 3 colorimetric assays were performed on the N38 cells at all pH conditions. The assay was based on the detection of the chromophore pNA after cleavage from the labeled substrate IETD-pNA and DEVD-pNA for caspase 8 and 3, respectively. Comparison of the pNA absorbance from the suspected apoptotic sample was compared to the uninduced neutral pH sample. Caspase 8 and 3 were analysed using the Caspase-3 Colorimetric Activity Assay (Chemicon, Temecula USA) and Caspase-8 Colorimetric Activity Assay (Chemicon, Temecula USA). The cells from each pH treatment described previously at 24 and 48 hrs were removed using a cell scraper and centrifuged at 1500 rpm for 10 minutes. The cells were resuspended in 350 μl of chilled cell lysis buffer containing 500 μl PBS, 5 μl 1% Triton ×100 (Sigma, St. Louis), 25 μl proteinase inhibitor cocktail set III (VWR, Mississauga), 0.5 μM dithiothreitol (DTT) (Sigma, St. Louis) and 2.5 μl phenylmethylsulphonylfluoride (PMSF) diluted in 1 mL of methanol (EM Science, Gibbstown), then incubated on ice for 10 min and centrifuged for 5 minutes at 10,000 rpm. The supernatant, consisting of cytosolic extracts, was transferred to a new tube and a bicinchoninic acid (BCA) protein assay (Pierce, Rockford) was conducted to determine total protein concentration. The absorbance of each sample was measured on a SPECTRAmax Microplate spectrophotometer at 405 nm after an incubation period of 2 hours at 37° C. Changes in caspase 3 activity were determined by comparing the absorbance reading from the induced sample with the level of the uninduced control. Background readings from the buffer were subtracted from the reading of both the induced (pH 6.8, 8.0, 8.4) and uninduced (pH 7.4) samples before calculating changes in caspase 3 activity. The same was done for the detection of caspase 8. As a control, N38 cells were cultured with pH 7.4 DMEM and incubated for 4 days, apoptosis was then induced using 10 μM/ml etoposide and lysed according to the above protocol and used a control for all subsequent caspase 3 detection. All assays were performed with 4 replications.

PARP = PARP cleavage by immunoblot; type: cell-based, mouse; details: 48 hour; all pH treatments
Experimental: Using the same protocol, changes in PARP expression were determined at 48 hrs. The membrane was incubated with PARP primary antibody (Cell Signaling Technology, Beverly) at a titre of 1:100. The membranes were washed 3 times for 5 min with 10 ml of PBST followed by membrane incubation with anti-rabbit horseradish peroxidase (HRP)-conjugated secondary antibody (Amersham, Baie d'Urfé) at 1:3000 in 6 ml of PBST-milk with gentle agitation for 1 hr at RT. The membranes were then washed 3 times for 5 min with 10 ml of PBST then exposed to Kodak X-OMAT Blue scientific imaging film (Perkin Elmer Canada Inc, Vaudreuil-Dorion) for 30 min. Total optical density of the blots, were quantified using LabWorks 4.0 Image Acquisition and Analysis Software from Ultra-Violet Products Ltd. (UVP).

superoxide dismutase = assay: Superoxide dismutase gene expression by real-time PCR; type: cell-based, mouse; details: p<0.01
[2] = test system: superoxide copper chaperone (CCSD); assay: Superoxide copper chaperone (CCSD) expression by real-time PCR; type: cell-based, mouse; details: pH 8.4
[3] = test system: cells treated with 50 μM H2O2; assay: H2O2 toxicity MTT assay; type: cell-based, mouse
catalase = assay: Catalase gene expression by real-time PCR; type: cell-based, mouse; details: p<0.001

Substance: teneurin C-terminus associated peptide [TCAP-1]
- number of small round (necrotic) cells, vehicle vs TCAP-treated ([1]; pH 6.8, p<0.05): significant increase in the number of small round cell types (necrotic cells) in the vehicle-treated cultures
- observable morphological changes ([1]; pH 7.4, TCAP-1 2×10^−7 M): did not induce any observable morphological changes
- number of small round (necrotic) cells, vehicle vs TCAP-treated ([1]; pH 8.0, p<0.001): significant increase in the number of small round cell types (necrotic cells) in the vehicle-treated cultures
- number of rounded cells relative to vehicle ([1]; pH 8.0, p<0.001): significantly decreased the number of rounded cells
- number of small round (necrotic) cells, vehicle vs TCAP-treated ([1]; pH 8.4, p<0.001): significant increase in the number of small round cell types (necrotic cells) in the vehicle-treated cultures
- number of rounded cells relative to vehicle ([1]; pH 8.4, p<0.001): significantly decreased the number of rounded cells
- number of rhodamine-fluorescing (necrotic) cells (N38 cells; pH 6.8): decreased the number of rhodamine-fluorescing cells
- number of rhodamine-fluorescing (necrotic) cells (N38 cells; pH 6.8, listed as TCAP): significantly decreased the amount of necrotic cells
- number of rhodamine-fluorescing (necrotic) cells (N38 cells; pH 8.0): decreased the number of rhodamine-fluorescing cells
- number of rhodamine-fluorescing (necrotic) cells (N38 cells; pH 8.0, listed as TCAP): significantly decreased the amount of necrotic cells
- number of rhodamine-fluorescing (necrotic) cells (N38 cells; pH 8.4): decreased the number of rhodamine-fluorescing cells
- number of rhodamine-fluorescing (necrotic) cells (N38 cells; pH 8.4, listed as TCAP): significantly decreased the amount of necrotic cells
- relative level of caspase 3 activity, of the etoposide-induced increase (caspase 3; pH 6.8): ~40%
- caspase 3 activity vs vehicle (caspase 3; pH 6.8, P<0.05): increased caspase 3 activity
- caspase 3 activity vs vehicle (caspase 3; pH 8.0): no significant differences in caspase 8 and 3 activity
- caspase 3 activity vs vehicle (caspase 3; pH 8.4): no significant differences in caspase 8 and 3 activity
- PARP on western blot, vehicle vs TCAP (PARP): no significant differences between vehicle and TCAP treated samples
- superoxide dismutase gene expression vs vehicle (superoxide dismutase; pH 7.4): increase over the vehicle treated cells
- superoxide dismutase gene expression vs vehicle (superoxide dismutase; pH 8.4): increase over the vehicle treated cells
- CCSD expression increase over vehicle treated cells [2]: ~4.5 fold
- mitochondrial (MTT) activity vs vehicle ([3]; 0 hours): no effect
- MTT activity relative to vehicle ([3]; 6 to 48 hours): significant increase in MTT activity
- mitochondrial (MTT) activity vs vehicle ([3]; 6 hours, p<0.001): significantly increased mitochondrial activity
- mitochondrial (MTT) activity vs vehicle ([3]; 12 hours, p<0.001): significantly increased mitochondrial activity
- mitochondrial (MTT) activity vs vehicle ([3]; 24 hours, p<0.05): less significant effect
- mitochondrial (MTT) activity vs vehicle ([3]; 48 hours, p<0.001): significantly increased mitochondrial activity
- catalase mRNA induction (catalase; pH 8.0): 3 fold
- catalase mRNA induction (catalase; pH 8.4): 5 fold
